PubChem BioAssay (NCI)
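The compound was tested at five concentrations on cells cultured in 96-well plates, with a 48-hour exposure period. GI50 is the concentration that inhibits growth by half. TGI marks complete inhibition of growth.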

Legend:
Assay in all cases: inhibition of tumour cell growth, NCI panel, 48 h
[1] = tested on: UACC-257 melanoma
[2] = tested on: UACC-62 melanoma
[3] = tested on: EKVX NSCLC
[4] = tested on: RPMI-8226 leukemia
[5] = tested on: OVCAR-8 ovarian
[6] = tested on: U251 CNS
[7] = tested on: MDA-MB-435
[8] = tested on: NCI-H226 lung
[9] = tested on: A498 renal
[10] = tested on: HT29 colon
[11] = tested on: 786-0 renal
[12] = tested on: OVCAR-4 ovarian
[13] = tested on: OVCAR-5 ovarian
[14] = tested on: NCI-H522 lung
[15] = tested on: NCI/ADR-RES ovarian
[16] = tested on: TK-10 renal
[17] = tested on: UO-31 renal
[18] = tested on: K-562 leukemia
[19] = tested on: SNB-19 CNS
[20] = tested on: SK-MEL-2 melanoma
[21] = tested on: SF-539 CNS
[22] = tested on: CCRF-CEM leukemia
[23] = tested on: OVCAR-3 ovarian
[24] = tested on: SN12C renal
[25] = tested on: HCT-116 colon
[26] = tested on: HS 578T breast
[27] = tested on: PC-3 prostate
[28] = tested on: ACHN renal
[29] = tested on: MALME-3M melanoma
[30] = tested on: NCI-H460 lung
[31] = tested on: SF-295 CNS
[32] = tested on: T-47D breast
[33] = tested on: MOLT-4 leukemia
[34] = tested on: HL-60(TB) leukemia
[35] = tested on: BT-549 breast
[36] = tested on: A549 NSCLC
[37] = tested on: LOX IMVI melanoma
[38] = tested on: SK-MEL-5 melanoma
[39] = tested on: IGROV1 ovarian
[40] = tested on: M14 melanoma
[41] = tested on: SK-MEL-28 melanoma
[42] = tested on: HCC-2998 colon
[43] = tested on: HCT-15 colon
[44] = tested on: COLO 205 colon
[45] = tested on: RXF 393 renal
[46] = tested on: HOP-62 NSCLC
[47] = tested on: SR leukemia
[48] = tested on: SNB-75 CNS
[49] = tested on: KM12 colon
[50] = tested on: MCF7 breast
[51] = tested on: NCI-H23 lung
[52] = tested on: SK-OV-3 ovarian
[53] = tested on: SW-620 colon
[54] = tested on: MDA-MB-231 breast
[55] = tested on: SF-268 CNS
[56] = tested on: HOP-92 NSCLC

SMILES: CC(C)=CCc1cc2c(cc1O)C1=C(C(=O)C3=C(NCCS3(=O)=O)C1=O)C(C=C(C)C)O2 (configuration not stated)
- GI50 [1]: 3.48 µM
- TGI [1]: 9.66 µM
- GI50 [2]: 3.39 µM
- TGI [2]: 8.79 µM
- GI50 [3]: 6.24 µM
- TGI [3]: > 16.7 µM
- GI50 [4]: 5.56 µM
- TGI [4]: > 16.7 µM
- GI50 [5]: 4.75 µM
- TGI [5]: > 16.7 µM
- GI50 [6]: 4.19 µM
- TGI [6]: 13.9 µM
- GI50 [7]: 2.89 µM
- TGI [7]: 5.6 µM
- GI50 [8]: 14.4 µM
- TGI [8]: > 16.7 µM
- GI50 [9]: > 16.7 µM
- TGI [9]: > 16.7 µM
- GI50 [10]: 7.35 µM
- TGI [10]: > 16.7 µM
- GI50 [11]: 9.97 µM
- TGI [11]: > 16.7 µM
- GI50 [12]: 3.31 µM
- TGI [12]: > 16.7 µM
- GI50 [13]: > 16.7 µM
- TGI [13]: > 16.7 µM
- GI50 [14]: 2.93 µM
- TGI [14]: 9.09 µM
- GI50 [15]: > 16.7 µM
- TGI [15]: > 16.7 µM
- GI50 [16]: > 16.7 µM
- TGI [16]: > 16.7 µM
- GI50 [17]: 5.57 µM
- TGI [17]: > 16.7 µM
- GI50 [18]: 5.02 µM
- TGI [18]: > 16.7 µM
- GI50 [19]: 3.81 µM
- TGI [19]: 11.9 µM
- GI50 [20]: 4.34 µM
- TGI [20]: 15 µM
- GI50 [21]: 4.22 µM
- TGI [21]: 12.9 µM
- GI50 [22]: 4.53 µM
- TGI [22]: > 16.7 µM
- GI50 [23]: 2.13 µM
- TGI [23]: 10.1 µM
- GI50 [24]: 2.78 µM
- TGI [24]: 5.69 µM
- GI50 [25]: 5.84 µM
- TGI [25]: > 16.7 µM
- GI50 [26]: 4.85 µM
- TGI [26]: > 16.7 µM
- GI50 [27]: 5.58 µM
- TGI [27]: > 16.7 µM
- GI50 [28]: 10.7 µM
- TGI [28]: > 16.7 µM
- GI50 [29]: 1.68 µM
- TGI [29]: 4.68 µM
- GI50 [30]: 5.35 µM
- TGI [30]: > 16.7 µM
- GI50 [31]: > 16.7 µM
- TGI [31]: > 16.7 µM
- GI50 [32]: 4.05 µM
- TGI [32]: > 16.7 µM
- GI50 [33]: 3.16 µM
- TGI [33]: 12.2 µM
- GI50 [34]: 4.43 µM
- TGI [34]: 13.5 µM
- GI50 [35]: 14.1 µM
- TGI [35]: > 16.7 µM
- GI50 [36]: > 16.7 µM
- TGI [36]: > 16.7 µM
- GI50 [37]: 4.48 µM
- TGI [37]: > 16.7 µM
- GI50 [38]: 3.35 µM
- TGI [38]: 6.95 µM
- GI50 [39]: 3.69 µM
- TGI [39]: 15 µM
- GI50 [40]: 5.85 µM
- TGI [40]: > 16.7 µM
- GI50 [41]: 3.81 µM
- TGI [41]: 9.84 µM
- GI50 [42]: 9.25 µM
- TGI [42]: > 16.7 µM
- GI50 [43]: 6.21 µM
- TGI [43]: > 16.7 µM
- GI50 [44]: 5.53 µM
- TGI [44]: > 16.7 µM
- GI50 [45]: 7.66 µM
- TGI [45]: > 16.7 µM
- GI50 [46]: 8.59 µM
- TGI [46]: > 16.7 µM
- GI50 [47]: 5.46 µM
- TGI [47]: > 16.7 µM
- GI50 [48]: 10.8 µM
- TGI [48]: > 16.7 µM
- GI50 [49]: 7.12 µM
- TGI [49]: > 16.7 µM
- GI50 [50]: 2.86 µM
- TGI [50]: 7.84 µM
- GI50 [51]: 5.8 µM
- TGI [51]: > 16.7 µM
- GI50 [52]: > 16.7 µM
- TGI [52]: > 16.7 µM
- GI50 [53]: 5 µM
- TGI [53]: > 16.7 µM
- GI50 [54]: 4.18 µM
- TGI [54]: 16.2 µM
- GI50 [55]: 4.13 µM
- TGI [55]: > 16.7 µM
- GI50 [56]: 6.89 µM
- TGI [56]: > 16.7 µM
